# Biological target: T1, human CXCR3 (N-delta 4) (Homo sapiens, UniProt P49682)
# T1 construct: CD8 leader; Flag tag; expressed in transfected cells; membranes used
# T1 sequence (P49682 5-368 limits assumed): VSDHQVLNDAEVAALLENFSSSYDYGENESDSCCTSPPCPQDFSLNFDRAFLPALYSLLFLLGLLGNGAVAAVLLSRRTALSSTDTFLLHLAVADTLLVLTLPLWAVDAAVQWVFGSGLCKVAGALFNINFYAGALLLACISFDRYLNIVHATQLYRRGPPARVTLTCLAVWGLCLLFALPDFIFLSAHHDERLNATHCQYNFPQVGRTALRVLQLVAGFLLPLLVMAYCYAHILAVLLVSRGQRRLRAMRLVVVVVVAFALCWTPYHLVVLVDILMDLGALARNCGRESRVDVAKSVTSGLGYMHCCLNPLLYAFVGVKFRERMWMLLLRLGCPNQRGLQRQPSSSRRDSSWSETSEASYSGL
# Experiment: Human CXCR3 (N-delta 4) scintillation proximity assay (SPA), [125I] IP-10 binding
# Conditions: IC50 rating; Ba/F3-hCXCR3 (N-delta 4) membranes, 25 pM [125I] IP-10
# Method in brief: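 Membranes from mouse Ba/F3 pro-B cells stably expressing Flag-tagged human CXCR3 (N-delta 4) were coupled to SPA beads. IP-10 was added together with titrated compounds to start the reaction, and bound radioligand was read by scintillation proximity.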
row,IC50 [nM],Structure (SMILES)
1,< 25,CC[C@H]1CN(c2ncc(C(=O)NC)cc2Cl)CCN1C1CCN(Cc2ccc(Cl)cc2)CC1 [compound 223]
2,< 25,C[C@H]1CN(c2ncc(C(=O)NCc3ccc(F)c(F)c3)cc2Cl)CCN1C1CCN(Cc2ccc(Cl)cc2)CC1 [compound 226]
3,< 25,CCNC(=O)c1cnc(N2CCN(C3CCN(Cc4ccc(Cl)cc4)CC3)[C@@H](C)C2)c(Cl)c1 [compound 227]
4,< 25,CCNC(=O)c1cc(Cl)c(N2CCN(C3CCN(Cc4ccc(Cl)cc4F)CC3)[C@@H](CC)C2)[n+]([O-])c1 [compound 229]
5,< 25,C[C@H]1CN(c2ncc(C(=O)Nc3ccon3)cc2Cl)CCN1C1CCN(Cc2ccc(Cl)cc2)CC1 [compound 233]
6,< 25,C[C@H]1CN(c2ncc(C(=O)NCc3ccc(F)c(F)c3)cc2Cl)CCN1C1CCN(Cc2ccc(C#N)cc2)CC1 [compound 234]
7,< 25,CC(C)NC(=O)c1cnc(N2CCN(C3CCN(Cc4ccc(Cl)cc4)CC3)[C@@H](C)C2)c(Cl)c1 [compound 236]
8,< 25,CNC(=O)c1cnc(N2CCN(C3CCN(Cc4ccc(Cl)cc4)CC3)[C@@H](C)C2)c(Br)c1 [compound 237]
9,< 25,CNC(=O)c1cnc(N2CCN(C3CCN(Cc4ccc(Cl)cc4)CC3)[C@@H](C)C2)c(Cl)c1 [compound 241]
10,< 25,C[C@@H]1CN(c2ncc(C(=O)NCC3CCCCC3)cc2Cl)CCN1C1CCN(Cc2ccc(Cl)cc2)CC1 [compound 242]
11,< 25,CC[C@H]1CN(c2ncc(C(=O)NC)cc2Cl)CCN1C1CCN(C(=O)c2ccc(Br)cc2)CC1 [compound 245]
12,< 25,CCNC(=O)c1cnc(N2CCN(C3CCN(C(=O)c4ccc(Cl)cc4)CC3)[C@@H](CC)C2)c(Cl)c1 [compound 246]
13,< 25,C[C@@H](NC(=O)c1cnc(N2CCN(C3CCN(Cc4ccc(Cl)cc4)CC3)[C@@H](C)C2)c(Cl)c1)C1CCCCC1 [compound 247]
14,< 25,C[C@@H]1CN(c2ncc(C(=O)NCC3CCCCC3)cc2Cl)CCN1C1CCN(C(=O)c2ccc(C#N)cc2)CC1 [compound 250]
15,< 25,CCNC(=O)c1cnc(N2CCN(C3CCN(Cc4ccc(Cl)cc4F)CC3)[C@@H](C)C2)c(Cl)c1 [compound 251]
16,< 25,CNC(=O)c1cnc(N2CCN(C3CCN(Cc4ccc(Cl)cc4)C(C)C3)[C@@H](C)C2)c(Cl)c1 (stereo partly drawn) [compound 252]
17,< 25,O=C(NCc1ccc(F)c(F)c1)c1cnc(N2CCN(C3CCN(Cc4ccc(Cl)cc4)CC3)CC2)c(Br)c1 [compound 253]
18,< 25,C[C@@H]1CN(c2ncc(C(=O)NCc3ccc(F)c(F)c3)cc2Cl)CCN1C1CCN(Cc2ccc(Cl)cc2)CC1 [compound 254]
19,< 25,CNC(=O)c1cnc(N2CCN(C3CCN(Cc4ccc(Cl)cc4Cl)CC3)[C@@H](C)C2)c(Cl)c1 [compound 255]
20,< 25,C[C@H]1CN(c2ncc(C(=O)Nc3ccc(F)c(F)c3)cc2Cl)CCN1C1CCN(Cc2ccc(Cl)cc2)CC1 [compound 261]
21,< 25,C[C@@H]1CN(c2ncc(C(=O)NCc3ccc(Cl)c(Cl)c3)cc2Cl)CCN1C1CCN(Cc2ccc(Cl)cc2)CC1 [compound 264]
22,< 25,O=C(NCc1ccc(F)c(F)c1)c1cnc(N2CCN(C3CCN(Cc4ccc(Br)cc4)CC3)CC2)c(Br)c1 [compound 265]
23,< 25,C[C@H]1CN(c2ncc(C(=O)NCc3ccc(Cl)c(Cl)c3)cc2Cl)CCN1C1CCN(C(=O)c2ccc(C#N)cc2)CC1 [compound 266]
24,25 to 100,O=C(NCc1ccc(F)c(F)c1)c1cnc(N2CCN(C3CCN(Cc4ccc(Br)cc4)CC3)CC2)c(Cl)c1 [compound 267]
25,25 to 100,CNC(=O)c1cnc(N2CCN(C3CCN([C@@H]4CCc5cc(Cl)ccc54)CC3)[C@@H](C)C2)c(Cl)c1 [compound 271]
26,25 to 100,O=C(NCc1ccc(F)cc1)c1cnc(N2CCN(C3CCN(Cc4ccc([N+](=O)[O-])cc4)CC3)CC2)c(Cl)c1 [compound 272]
27,25 to 100,CCNC(=O)c1cnc(N2CCN(C3CCN(Cc4ccc(Cl)cc4F)CC3)C(CC(F)(F)F)C2)c(Cl)c1 (stereo not drawn) [compound 275]
28,25 to 100,COc1ccc(CN2CCC(N3CCN(c4ncc(C(=O)NCc5ccc(Cl)c(Cl)c5)cc4Br)CC3)CC2)cc1 [compound 276]
29,25 to 100,CNC(=O)c1cnc(N2CCN(C3CCN([C@H]4CCc5cc(Cl)ccc54)CC3)[C@@H](C)C2)c(Cl)c1 [compound 278]
30,25 to 100,O=C(NCc1ccc(Cl)c(Cl)c1)c1cnc(N2CCN(C3CCN(Cc4ccc(Cl)cc4)CC3)CC2)c(Br)c1 [compound 279]

# More lines, now with the values behind:
row,Structure (SMILES),IC50 [nM]
1,CCNC(=O)c1cnc(N2CCN(C3CCN(Cc4ccc(I)cc4)CC3)[C@@H](CC)C2)c(Cl)c1 [compound 218],< 25
2,CC[C@H]1CN(c2ncc(C(=O)NC)cc2Cl)CCN1C1CCN(Cc2ccc(Br)cc2F)CC1 [compound 219],< 25
3,CCNC(=O)c1cnc(N2CCN(C3CCN(Cc4ccc(Cl)cc4)C(C)C3)[C@@H](CC)C2)c(Cl)c1 (stereo partly drawn) [compound 220],< 25
4,CC[C@H]1CN(c2ncc(C(=O)NCc3ccc(F)c(F)c3)cc2Cl)CCN1C1CCN(Cc2ccc(Cl)cc2)CC1 [compound 221],< 25
5,C[C@H]1CN(c2ncc(C(=O)NCc3ccc(F)c(F)c3)cc2Br)CCN1C1CCN(Cc2ccc(Cl)cc2)CC1 [compound 222],< 25
6,CC[C@H]1CN(c2ncc(C(=O)NC)cc2Cl)CCN1C1CCN(Cc2ccc(Cl)cc2F)CC1 [compound 224],< 25
7,C[C@H]1CN(c2ncc(C(=O)NCC3CCCCC3)cc2Br)CCN1C1CCN(Cc2ccc(Cl)cc2)CC1 [compound 225],< 25
8,C[C@H]1CN(c2ncc(C(=O)NCC3CCCCC3)cc2Cl)CCN1C1CCN(Cc2ccc(Cl)cc2)CC1 [compound 228],< 25
9,C[C@H]1CN(c2ncc(C(=O)NCc3ccc(Cl)c(Cl)c3)cc2Cl)CCN1C1CCN(Cc2ccc(C#N)cc2)CC1 [compound 230],< 25
10,CCNC(=O)c1cnc(N2CCN(C3CCN([C@H](C)c4ccc(Cl)cc4)CC3)[C@@H](C)C2)c(Cl)c1 [compound 231],< 25
11,CNC(=O)c1cnc(N2CCN(C3CCN([C@H](C)c4ccc(Cl)cc4)CC3)[C@@H](C)C2)c(Cl)c1 [compound 232],< 25
12,C[C@@H]1CN(c2ncc(C(=O)NCC3CCCCC3)cc2Cl)CCN1C1CCN(Cc2ccc(C#N)cc2)CC1 [compound 235],< 25
13,CCNC(=O)c1cnc(N2CCN(C3CCN(C(C)c4ccc(Cl)cc4)CC3)[C@@H](C)C2)c(Cl)c1 (stereo partly drawn) [compound 239],< 25
14,CNC(=O)c1cnc(N2CCN(C3CCN(Cc4ccc(Br)cc4F)CC3)[C@@H](C)C2)c(Cl)c1 [compound 240],< 25
15,CNC(=O)c1cnc(N2CCN(C3CCN(C(C)c4ccc(Cl)cc4)CC3)[C@@H](C)C2)c(Cl)c1 (stereo partly drawn) [compound 243],< 25
16,CC[C@H]1CN(c2ncc(C(N)=O)cc2Cl)CCN1C1CCN(Cc2ccc(Cl)cc2F)CC1 [compound 244],< 25
17,C[C@H]1CN(c2ncc(C(=O)NCc3ccc(F)c(F)c3)cc2Cl)CCN1C1CCN(C(=O)c2ccc(C#N)cc2)CC1 [compound 248],< 25

row,Structure (SMILES),IC50 [nM]
1,CCNC(=O)c1cnc(N2CCN(C3CCN(Cc4ccc(Cl)cc4F)CC3)C(C3CC3)C2)c(Cl)c1 (stereo not drawn) [compound 249],< 25
2,CCNC(=O)c1cnc(N2C[C@H](CC)N(C3CCN(C(=O)c4ccc(Cl)cc4)CC3)C[C@H]2C)c(Cl)c1 [compound 256],< 25
3,CC[C@H]1CN(c2ncc(C(=O)NCCO)cc2Cl)CCN1C1CCN(C(CO)c2ccc(Cl)cc2)CC1 (stereo partly drawn) [compound 257],< 25
4,CNC(=O)c1cnc(N2CCN(C3CCN(Cc4ccc(Cl)cc4F)CC3)[C@@H](C)C2)c(Cl)c1 [compound 258],< 25
5,CC[C@H]1CN(c2ncc(C(=O)NC)cc2Cl)CCN1C1CCN(C(=O)c2ccc(Cl)cc2)CC1 [compound 259],< 25
6,CCNC(=O)c1cnc(N2CCN(C3CCN(C(=O)c4ccc(Cl)cc4F)CC3)[C@@H](CC)C2)c(Cl)c1 [compound 260],< 25
7,CCNC(=O)c1cnc(N2CCN(C3CCN(C(=O)c4ccc(-n5cccc5)cc4)CC3)[C@@H](CC)C2)c(Cl)c1 [compound 262],< 25
8,CCNC(=O)c1cnc(N2C[C@H](C)N(C3CCN(Cc4ccc(Cl)cc4F)CC3)C[C@H]2C)c(Cl)c1 [compound 263],< 25
9,O=C(NCc1ccc(F)c(F)c1)c1cnc(N2CCN(C3CCN(Cc4ccc([N+](=O)[O-])cc4)CC3)CC2)c(Cl)c1 [compound 268],25 to 100
10,CCNC(=O)c1cnc(N2CCN(C3CCN(C(=O)c4ccc(C#N)cc4)CC3)[C@@H](CC)C2)c(Cl)c1 [compound 269],25 to 100
11,C[C@@H]1CN(c2ncc(C(=O)NCc3ccc(F)c(F)c3)cc2Cl)CCN1C1CCN(Cc2ccc(C#N)cc2)CC1 [compound 270],25 to 100
12,CC[C@H]1CN(c2ncc(C(=O)NN)cc2Cl)CCN1C1CCN(Cc2ccc(Cl)cc2F)CC1 [compound 273],25 to 100
13,CC[C@H]1CN(c2ncc(C(=O)NCCO)cc2Cl)CCN1C1CCN(C(C(=O)OC)c2ccc(Cl)cc2)CC1 (stereo partly drawn) [compound 274],25 to 100
14,N#Cc1ccc(CN2CCC(N3CCN(c4ncc(C(=O)NCc5ccc(F)c(F)c5)cc4Br)CC3)CC2)cc1 [compound 277],25 to 100
15,COc1ccc(CN2CCC(N3CCN(c4ncc(C(=O)NCc5ccc(F)c(F)c5)cc4Br)CC3)CC2)cc1 [compound 280],25 to 100
16,C[C@H]1CN(c2ncc(C(N)=O)cc2Cl)CCN1C1CCN(Cc2ccc(Cl)cc2)CC1 [compound 281],25 to 100
